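Where inhibition never reached the appropriate level, the endpoint shown equals the highest concentration tested. Otherwise, values were interpolated linearly from a five-concentration, 48-hour dose response in 96-well plates. The concentration for full growth arrest is given as TGI.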
Key:
Experiment in all cases: growth of human tumour cells (NCI), 48 h
[1] = test system: M14 melanoma
[2] = test system: SR leukemia
[3] = test system: CCRF-CEM leukemia
[4] = test system: SK-OV-3 ovarian
[5] = test system: NCI-H460 lung
[6] = test system: ACHN renal
[7] = test system: UACC-257 melanoma
[8] = test system: UACC-62 melanoma
[9] = test system: DU-145 prostate
[10] = test system: EKVX NSCLC
[11] = test system: OVCAR-3 ovarian
[12] = test system: LOX IMVI melanoma
[13] = test system: MDA-N
[14] = test system: SNB-75 CNS
[15] = test system: CAKI-1 renal
[16] = test system: MDA-MB-231 breast
[17] = test system: MALME-3M melanoma
[18] = test system: NCI-H23 lung
[19] = test system: HOP-92 NSCLC
[20] = test system: TK-10 renal
[21] = test system: OVCAR-8 ovarian
[22] = test system: SK-MEL-2 melanoma
[23] = test system: SF-295 CNS
[24] = test system: NCI-H226 lung
[25] = test system: SN12C renal
[26] = test system: MCF7 breast
[27] = test system: PC-3 prostate
[28] = test system: UO-31 renal
[29] = test system: IGROV1 ovarian
[30] = test system: NCI/ADR-RES ovarian
[31] = test system: SK-MEL-5 melanoma
[32] = test system: HCT-116 colon
[33] = test system: KM12 colon
[34] = test system: COLO 205 colon
[35] = test system: HT29 colon
[36] = test system: 786-0 renal
[37] = test system: K-562 leukemia
[38] = test system: MOLT-4 leukemia
[39] = test system: HS 578T breast
[40] = test system: OVCAR-5 ovarian
[41] = test system: OVCAR-4 ovarian
[42] = test system: U251 CNS
[43] = test system: SK-MEL-28 melanoma
[44] = test system: RPMI-8226 leukemia
[45] = test system: SF-539 CNS
[46] = test system: HCT-15 colon
[47] = test system: SF-268 CNS
[48] = test system: HL-60(TB) leukemia
[49] = test system: T-47D breast
[50] = test system: A549 NSCLC
[51] = test system: MDA-MB-435
[52] = test system: HOP-62 NSCLC
[53] = test system: SW-620 colon
[54] = test system: HCC-2998 colon

Measured: TGI

CC1(C)CC2C(C1=O)C1(C)CCCC2(C)C1=O (centres undefined)
> 100 µM: all assays above

Source: PubChem BioAssay (NCI)
